Reference: patent US11083793B2, “Epidermal growth factor receptor (EGFR) targeted photosensitizers” (Health Research, Inc., priority 2016, dated 2021)

Assays:
HNSCC cells = experiment: 3-D co-culture of HN-85-1-3 and tumor stromal cells; type: cell-based; details: 1600 nM, 24 h, then 48 h in medium
Procedure: The cells were washed free of PS and incubated for additional 48 h in medium. The fluorescence for CSFE stromal cells and PS fluorescence was recorded in an inverted fluorescent microscope.
The tumor specificity of the compounds was also confirmed in head & neck cancer using 3D culture system.

UMUC3 tumors [1] = experiment: HPPH-PDT in combination with BCG, UMUC3 tumors; type: in vivo, mice; details: HPPH 0.47 μmol/kg in combination with BCG (1-1.5×10^6 CFU SQ weekly×3); 135 J/cm^2, 75 mW/cm^2 at 6 h
Procedure: For details see the text.
One hour after the PDT treatment, BCG was injected (1-1.5×10^6 CFU), SQ weekly×3 doses, and the day 30 data summarized in FIG. 11, are very encouraging.

UMUC3 tumors [2] = experiment: In vivo uptake in tumor, liver and skin (IVIS), UMUC3 tumors; set-up: species or system SCID mice; details: UMUC3 tumor model; 0.47 μmol/kg
Procedure: C1i. PS with and without erlotinib show high tumor-uptake and significant difference in their pharmacokinetic profiles in UMUC3 and T24 tumors implanted in SCID mice: The SCID mice bearing either UMUC3 or T24 tumors (4-5 mm size) were injected with the PS 30, and the corresponding erlotinib conjugates 6, 34 & 39 with and without iodine functionality. Among the iodinated analogs, the iodobenzyl group was introduced either at the bottom half of 5 or top half of the molecule 39, and were converted into the corresponding radioactive (^124I-) analogs for PET imaging. The non-radioactive analogs were injected in tumored mice (3 mice/group) at a dose of 0.47 μmol/kg), and the mice were imaged at regular time intervals. The dose was selected on the basis of the therapeutic dose of HPPH. The uptake of tumor, liver and skin was measured by IVIS system (3 mice group), and interesting pharmacokinetic profiles of the PS were observed (FIG. 8).
C1j. […] Therefore, the tumors were exposed to light at their optimal uptake time points respectively.

ABCG2 [3] = molecular target: T1, ABCG2 (Homo sapiens, UniProt Q9UNQ0); experiment: In vitro PDT efficacy with/without Gleevec (MTT), UMUC3; type: cell-based; details: UMUC3 cells
T1 construct: endogenous in cells; host or cells: UMUC3 bladder cancer cells
T1 sequence (Q9UNQ0 1-655): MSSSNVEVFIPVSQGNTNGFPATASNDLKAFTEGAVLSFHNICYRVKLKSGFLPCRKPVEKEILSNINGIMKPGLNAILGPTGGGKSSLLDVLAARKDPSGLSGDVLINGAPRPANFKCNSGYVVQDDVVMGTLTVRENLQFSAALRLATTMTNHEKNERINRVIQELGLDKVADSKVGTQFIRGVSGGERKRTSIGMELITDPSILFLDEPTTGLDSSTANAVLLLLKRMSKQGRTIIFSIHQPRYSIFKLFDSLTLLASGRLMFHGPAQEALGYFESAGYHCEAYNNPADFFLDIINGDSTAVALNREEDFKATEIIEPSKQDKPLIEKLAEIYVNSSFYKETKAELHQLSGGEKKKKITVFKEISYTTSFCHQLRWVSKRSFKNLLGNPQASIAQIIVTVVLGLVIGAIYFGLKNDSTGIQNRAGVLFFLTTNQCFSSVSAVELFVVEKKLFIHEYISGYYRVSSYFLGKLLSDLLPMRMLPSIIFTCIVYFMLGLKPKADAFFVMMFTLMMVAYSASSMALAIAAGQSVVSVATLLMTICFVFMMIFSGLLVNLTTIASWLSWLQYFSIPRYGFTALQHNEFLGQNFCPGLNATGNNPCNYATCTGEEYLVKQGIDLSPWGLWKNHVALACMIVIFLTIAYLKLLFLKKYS
Description: (§1) C1e. In contrast to PS 1 and 2, the PS- erlotinib conjugate 3 is not the substrate of ABCG2: The influence of PS as substrate for ABCG2 transport was observed by fluorescent microscopy. […] This information is very interesting as it could help to select an effective treatment option to cancer patients with and without expression of ABCG2 transporter.

ABCG2 [4] = experiment: ABCG2 substrate specificity: PS uptake with/without Gleevec, T24; type: cell-based; details: T24 cells (lack ABCG2); PS 500 nM; Gleevec 5 μM; fluorescence
Description: (§2) T24 cells lack ABCG2 expression.
as §1

ABCG2 [5] = molecular target: T1, ABCG2; experiment: ABCG2 substrate specificity: PS uptake with/without Gleevec, UMUC3; type: cell-based; details: UMUC3 cells; PS 500 nM; Gleevec 5 μM; fluorescence
Description: as §2, §1

HN-85-1-3 cells = experiment: Growth inhibition of EGF-dependent HNSCC cell cultures; type: cell-based; details: 3.2 μM, 72 h, RPMI+10% FBS; preliminary experiments
Procedure: HN-85-1-3 cells were cultured of 72 h in regular growth medium (RPMI+10% FBS) and containing 3.2 μM erlotinib or the indicated PSs. The cell density was photographically recorded at the beginning and end of the culture period. The cell-associated PSs were determined by fluorescence imaging.

Row | SMILES | retention by HNSCC cells in 3-D co-culture (HNSCC cells) | long-term cure compared to HPPH-PDT alone (UMUC3 tumors [1]) | time of optimal/maximum tumor uptake post-injection (UMUC3 tumors [2]) [h] | substrate of ABCG2 (ABCG2 [3]) | PDT efficacy with and without Gleevec (ABCG2 [3]; MTT assay) | uptake of PS on addition of Gleevec (ABCG2 [4]) | uptake of PS on addition of Gleevec (ABCG2 [5]) | growth inhibition (HN-85-1-3 cells)
1 | CCCCCCOC(C)c1c(C)c2cc3nc(c4c5[nH]c(cc6nc(cc1[nH]2)C(C)=C6CC)c(C)c5C(=O)C4)[C@@H](CCC(=O)O)[C@@H]3C (some centres unmarked) [HPPH, 2-(1-Hexyloxyethyl)-2-devinyl pyropheophorbide-a] | low retention | improved long-term cure | 24 | substrates of ABCG2 | enhancement of PDT efficacy | did not show any significant increase | significantly increased | –
2 | C#Cc1cccc(Nc2ncnc3cc(OCCOC)c(OCCOC)cc23)c1 [erlotinib] | – | – | – | – | – | – | – | cytostatic action
